Reference: publication PMC4807248 (The Journal of Biological Chemistry, 2016)

T1: PqsC^C129A (P. aeruginosa PAO1, UniProt Q9I4X1 2-348, C129A)
T1 construct: also called PqsC subunit of PqsBC^C129A
T1 sequence: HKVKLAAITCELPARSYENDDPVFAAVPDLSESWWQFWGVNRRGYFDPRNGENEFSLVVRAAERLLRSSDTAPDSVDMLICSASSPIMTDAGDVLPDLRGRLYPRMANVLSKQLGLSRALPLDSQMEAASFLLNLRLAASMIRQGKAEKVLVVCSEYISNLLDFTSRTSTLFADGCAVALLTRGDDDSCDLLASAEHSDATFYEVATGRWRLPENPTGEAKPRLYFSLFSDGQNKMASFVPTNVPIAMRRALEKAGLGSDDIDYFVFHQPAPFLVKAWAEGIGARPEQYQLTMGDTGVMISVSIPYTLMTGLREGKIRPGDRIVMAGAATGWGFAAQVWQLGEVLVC


Key:
PqsBC [1] = biological target: T2, PqsBC (Pseudomonas aeruginosa, UniProt Q9I4X1, C129A); experiment: biochemical
T2 construct: gene pqsC

PqsBC [2] = biological target: T3, PqsBC (Pseudomonas aeruginosa, UniProt Q9I4X1, C129S); experiment: biochemical
T3 construct: gene pqsC

PqsBC [3] = biological target: T4, PqsBC (Pseudomonas aeruginosa, UniProt Q9I4X1, H269A); experiment: biochemical
T4 construct: gene pqsC

PqsBC [4] = biological target: T5, PqsBC (Pseudomonas aeruginosa, UniProt Q9I4X1, V299N); experiment: biochemical
T5 construct: gene pqsC

PqsC^C129A = biological target: T1, PqsC^C129A; experiment: crystal structure; PqsBC^C129A crystallised in 25% PEG 3350, 0.1 M Tris pH 8.3, 0.2 M NaCl; 2.0 Å; four copies of PqsB and four of PqsC in the asymmetric unit; settings: both partners purified

T4 sequence (Q9I4X1 whole entry, stated change not applied, one chain of several): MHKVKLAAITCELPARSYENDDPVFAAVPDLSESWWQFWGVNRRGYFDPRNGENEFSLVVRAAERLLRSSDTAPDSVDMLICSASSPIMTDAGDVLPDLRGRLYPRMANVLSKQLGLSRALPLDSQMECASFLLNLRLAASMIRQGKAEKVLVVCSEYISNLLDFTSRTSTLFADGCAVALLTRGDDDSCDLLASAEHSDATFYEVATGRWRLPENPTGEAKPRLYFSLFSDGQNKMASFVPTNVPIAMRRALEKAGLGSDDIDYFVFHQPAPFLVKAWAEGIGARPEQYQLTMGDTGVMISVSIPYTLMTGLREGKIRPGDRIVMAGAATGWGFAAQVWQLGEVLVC
T2 sequence (Q9I4X1 whole entry, stated change not applied, one chain of several): as above
T3 sequence (Q9I4X1 whole entry, stated change not applied, one chain of several): as above
T5 sequence (Q9I4X1 whole entry, stated change not applied, one chain of several): as above

Row | Molecule | Kd (PqsBC [1]) | Kd (PqsBC [2]) | Kd (PqsBC [3]) | Kd (PqsBC [4]) | binding result (PqsC^C129A)
1 | CC(=O)c1ccccc1N [2-aminoacetophenone] | 158 ± 12 µM | 170 ± 10 µM | 117 ± 6 µM | > 1000 µM | –
2 | Nc1ccccc1C(=O)CC(=O)O [2-aminobenzoylacetate] | 330 ± 30 µM | 411 ± 43 µM | 198 ± 11 µM | > 1000 µM | –
3 | PqsB (natural protein, also called PqsB subunit of PqsBC) MLIQAVGVNLPPSYVCLEGPLGGERPRAQGDEMLMQRLLPAVREALDEAAVKPEEIDLIVGLALSPDHLIENRDIMAPKIGHPLQKVLGANRAHVFDLTDSSLARALYVVDTLASDQGYRNVLVVRGESSQGLEVDSESGFALADGALALLCRPTGKAAFRRGALGGDPAQEWLPLSIPLNTDIRQVGDVKGHLNLPAQPGLPEAVRAGFTRLAGDFPQLNWVREEWFGQGRPDGRCLGPFELASQLRAAQRDRLDELLLISFDPFGMVVEGVTLELAGEAHA | – | – | – | – | binds
